Data from patent publication US20240158446A1, “CYCLIC COMPOUND HAVING SELECTIVE INHIBITORY ACTION ON KRAS OVER HRAS AND NRAS” (CHUGAI SEIYAKU KABUSHIKI KAISHA, priority 2021, published 2024).

What was measured:
[1] = target: GDP-bound HRAS wild-type protein (Homo sapiens, UniProt P01112); experiment: Binding to HRAS by surface plasmon resonance (SPR), Single Cycle Kinetics; conditions: SPR KD ratio HRAS/KRAS, class symbols
[2] = target: GDP-bound KRAS wild-type protein (Homo sapiens, UniProt P01116); experiment: Binding to KRAS by surface plasmon resonance (SPR), Single Cycle Kinetics; conditions: SPR Single Cycle Kinetics, GDP-bound KRAS wild-type protein, 1:1 binding model; read-out: KRAS KD
Chain of GDP-bound KRAS wild-type protein (P01116 whole entry): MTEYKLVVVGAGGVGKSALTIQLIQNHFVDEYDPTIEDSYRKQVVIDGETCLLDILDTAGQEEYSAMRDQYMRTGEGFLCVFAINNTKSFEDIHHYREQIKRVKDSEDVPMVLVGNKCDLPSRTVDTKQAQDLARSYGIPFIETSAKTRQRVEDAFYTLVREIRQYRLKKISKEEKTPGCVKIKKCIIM

[3] = target: GDP-bound NRAS wild-type protein (Homo sapiens, UniProt P01111); experiment: Binding to NRAS by surface plasmon resonance (SPR), Single Cycle Kinetics; conditions: SPR KD ratio NRAS/KRAS, class symbols
Chain of GDP-bound NRAS wild-type protein (P01111 whole entry): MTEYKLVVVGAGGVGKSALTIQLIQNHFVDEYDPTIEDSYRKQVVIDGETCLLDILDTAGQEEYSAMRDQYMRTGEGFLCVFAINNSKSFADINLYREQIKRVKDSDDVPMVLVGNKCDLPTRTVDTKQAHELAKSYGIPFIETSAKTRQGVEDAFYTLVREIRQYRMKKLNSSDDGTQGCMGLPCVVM

Chain of GDP-bound HRAS wild-type protein (P01112 whole entry): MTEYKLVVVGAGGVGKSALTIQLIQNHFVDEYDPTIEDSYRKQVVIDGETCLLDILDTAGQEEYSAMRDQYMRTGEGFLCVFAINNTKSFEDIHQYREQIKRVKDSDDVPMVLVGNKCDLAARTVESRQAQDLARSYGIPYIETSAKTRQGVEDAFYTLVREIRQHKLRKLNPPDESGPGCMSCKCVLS

Kd [2] [nM] | Structure (SMILES) | HRAS/KRAS (ratio of KD value with respect to GDP-bound HRAS wild-type protein to KD value with respect to KRAS) [1] | NRAS/KRAS (ratio of KD value with respect to GDP-bound NRAS wild-type protein to KD value with respect to KRAS) [3]
2.4 | CCC[C@H]1C(=O)N[C@@H]([C@@H](C)CC)C(=O)N(C)CC(=O)N(C)[C@H]2C/C=C\CCN(C2=O)[C@@H](Cc2ccc(C(F)(F)F)cc2)C(=O)N(C)CC(=O)N[C@@H](CCc2ccc(CC)c(Cl)c2)C(=O)N2C[C@H](OCC)C[C@H]2C(=O)NC2(CC(C)(C)C2)C(=O)N(C)[C@@H](C(CC)CC)C(=O)N(C)[C@H](C(=O)N(C)C)CC(=O)N1C [PP2777] | A (a compound having 10 or more and less than 20 is denoted as A) | AA (a compound having 20 or more is denoted as AA)
0.62 | CCC[C@H]1C(=O)N[C@@H]([C@@H](C)CC)C(=O)N(C)CC(=O)N(C)[C@H]2C/C=C\CCN(C2=O)[C@@H](Cc2ccc(C)cc2)C(=O)N(C)CC(=O)N[C@@H](CCc2ccc(CC)c(Cl)c2)C(=O)N2C[C@H](OCC)C[C@H]2C(=O)NC2(CC(C)(C)C2)C(=O)N(C)[C@@H](C2CCCC2)C(=O)N(C)[C@H](C(=O)N(C)C)CC(=O)N1C [PP2778] | A (a compound having 10 or more and less than 20 is denoted as A) | A (a compound having 10 or more and less than 20 is denoted as A)
0.3 | CCC[C@H]1C(=O)N[C@@H]([C@@H](C)CC)C(=O)N(C)CC(=O)N(C)[C@H]2C/C=C\CCN(C2=O)[C@@H](Cc2ccc(C(F)(F)F)cc2)C(=O)N(C)CC(=O)N[C@@H](CCc2cc(F)c(C(F)F)c(F)c2)C(=O)N2C[C@H](OCC)C[C@H]2C(=O)NC2(CC(C)(C)C2)C(=O)N(C)[C@@H](C2CCCC2)C(=O)N(C)[C@H](C(=O)N(C)C)CC(=O)N1C [PP2780] | A (a compound having 10 or more and less than 20 is denoted as A) | A (a compound having 10 or more and less than 20 is denoted as A)
1.5 | CCC[C@H]1C(=O)N[C@@H]([C@@H](C)CC)C(=O)N(C)CC(=O)N(C)[C@H]2C/C=C\CCN(C2=O)[C@@H](Cc2ccc(C(F)(F)F)cc2)C(=O)N(C)CC(=O)N[C@@H](CCc2cc(F)c(C(F)F)c(F)c2)C(=O)N2C[C@H](OCC)C[C@H]2C(=O)NC2(CC(C)(C)C2)C(=O)N(C)[C@@H](C(CC)CC)C(=O)N(C)[C@H](C(=O)N(C)C)CC(=O)N1C [PP2781] | A (a compound having 10 or more and less than 20 is denoted as A) | AA (a compound having 20 or more is denoted as AA)
0.49 | CCC[C@H]1C(=O)N[C@@H]([C@@H](C)CC)C(=O)N(C)CC(=O)N(C)[C@H]2C/C=C\CCN(C2=O)[C@@H](Cc2ccc(C)cc2)C(=O)N(C)CC(=O)N[C@@H](CCc2cc(F)c(C(F)F)c(F)c2)C(=O)N2C[C@H](OCC)C[C@H]2C(=O)NC2(CC(C)(C)C2)C(=O)N(C)[C@@H](C2CCCC2)C(=O)N(C)[C@H](C(=O)N(C)C)CC(=O)N1C [PP2782] | A (a compound having 10 or more and less than 20 is denoted as A) | A (a compound having 10 or more and less than 20 is denoted as A)
0.13 | CCC[C@H]1C(=O)N[C@@H]([C@@H](C)CC)C(=O)N(C)CC(=O)N(C)[C@H]2C/C=C\CCN(C2=O)[C@@H](Cc2ccc(C(F)(F)F)cc2)C(=O)N(C)CC(=O)N[C@@H](CCc2ccc(Cl)c(C(F)(F)F)c2)C(=O)N2C[C@H](OCC)C[C@H]2C(=O)NC2(CC(C)(C)C2)C(=O)N(C)[C@@H](C2CCCC2)C(=O)N(C)[C@H](C(=O)N(C)C)CC(=O)N1C [PP2784] | A (a compound having 10 or more and less than 20 is denoted as A) | A (a compound having 10 or more and less than 20 is denoted as A)
0.26 | CCC[C@H]1C(=O)N[C@@H]([C@@H](C)CC)C(=O)N(C)CC(=O)N(C)[C@H]2C/C=C\CCN(C2=O)[C@@H](Cc2ccc(C(F)(F)F)cc2)C(=O)N(C)CC(=O)N[C@@H](CCc2ccc(Cl)c(C(F)(F)F)c2)C(=O)N2C[C@H](OCC)C[C@H]2C(=O)NC2(CC(C)(C)C2)C(=O)N(C)[C@@H](C(CC)CC)C(=O)N(C)[C@H](C(=O)N(C)C)CC(=O)N1C [PP2785] | A (a compound having 10 or more and less than 20 is denoted as A) | AA (a compound having 20 or more is denoted as AA)
0.14 | CCC[C@H]1C(=O)N[C@@H]([C@@H](C)CC)C(=O)N(C)CC(=O)N(C)[C@H]2C/C=C\CCN(C2=O)[C@@H](Cc2ccc(C)cc2)C(=O)N(C)CC(=O)N[C@@H](CCc2ccc(Cl)c(C(F)(F)F)c2)C(=O)N2C[C@H](OCC)C[C@H]2C(=O)NC2(CC(C)(C)C2)C(=O)N(C)[C@@H](C2CCCC2)C(=O)N(C)[C@H](C(=O)N(C)C)CC(=O)N1C [PP2786] | A (a compound having 10 or more and less than 20 is denoted as A) | A (a compound having 10 or more and less than 20 is denoted as A)
0.36 | CCC[C@H]1C(=O)N[C@@H]([C@@H](C)CC)C(=O)N(C)CC(=O)N(C)[C@H]2C/C=C\CCN(C2=O)[C@@H](Cc2ccc(C)cc2)C(=O)N(C)CC(=O)N[C@@H](CCc2ccc(Cl)c(C(F)(F)F)c2)C(=O)N2C[C@H](OCC)C[C@H]2C(=O)NC2(CC(C)(C)C2)C(=O)N(C)[C@@H](C(CC)CC)C(=O)N(C)[C@H](C(=O)N(C)C)CC(=O)N1C [PP2787] | A (a compound having 10 or more and less than 20 is denoted as A) | AA (a compound having 20 or more is denoted as AA)
0.45 | CCC[C@H]1C(=O)N[C@@H]([C@@H](C)CC)C(=O)N(C)CC(=O)N(C)[C@H]2C/C=C\CCN(C2=O)[C@@H](Cc2ccc(C(F)(F)F)cc2)C(=O)N(C)CC(=O)N[C@@H](CCc2ccc(Cl)c(OC)c2)C(=O)N2C[C@H](OCC)C[C@H]2C(=O)NC2(CC(C)(C)C2)C(=O)N(C)[C@@H](C2CCCC2)C(=O)N(C)[C@H](C(=O)N(C)C)CC(=O)N1C [PP2788] | A (a compound having 10 or more and less than 20 is denoted as A) | A (a compound having 10 or more and less than 20 is denoted as A)
1 | CCC[C@H]1C(=O)N[C@@H]([C@@H](C)CC)C(=O)N(C)CC(=O)N(C)[C@H]2C/C=C\CCN(C2=O)[C@@H](Cc2ccc(C(F)(F)F)cc2)C(=O)N(C)CC(=O)N[C@@H](CCc2ccc(Cl)c(OC)c2)C(=O)N2C[C@H](OCC)C[C@H]2C(=O)NC2(CC(C)(C)C2)C(=O)N(C)[C@@H](C(CC)CC)C(=O)N(C)[C@H](C(=O)N(C)C)CC(=O)N1C [PP2789] | A (a compound having 10 or more and less than 20 is denoted as A) | AA (a compound having 20 or more is denoted as AA)
0.54 | CCC[C@H]1C(=O)N[C@@H]([C@@H](C)CC)C(=O)N(C)CC(=O)N(C)[C@H]2C/C=C\CCN(C2=O)[C@@H](Cc2ccc(C)cc2)C(=O)N(C)CC(=O)N[C@@H](CCc2ccc(Cl)c(OC)c2)C(=O)N2C[C@H](OCC)C[C@H]2C(=O)NC2(CC(C)(C)C2)C(=O)N(C)[C@@H](C2CCCC2)C(=O)N(C)[C@H](C(=O)N(C)C)CC(=O)N1C [PP2790] | A (a compound having 10 or more and less than 20 is denoted as A) | A (a compound having 10 or more and less than 20 is denoted as A)
0.12 | CCCC[C@H]1C(=O)N[C@@H]([C@@H](C)CC)C(=O)N(C)CC(=O)N(C)[C@H]2C/C=C\CCN(C2=O)[C@@H](Cc2ccc(C)cc2)C(=O)N(C)CC(=O)N[C@@H](CCc2cc(F)c(C(F)(F)F)c(F)c2)C(=O)N2C[C@H](OCC)C[C@H]2C(=O)NC2(CCC2)C(=O)N(C)[C@@H](C2CCCC2)C(=O)N(C)[C@H](C(=O)N(C)CC)CC(=O)N1C [PP2796] | A (a compound having 10 or more and less than 20 is denoted as A) | A (a compound having 10 or more and less than 20 is denoted as A)
0.075 | CCCC[C@H]1C(=O)N[C@@H]([C@@H](C)CC)C(=O)N(C)CC(=O)N(C)[C@H]2C/C=C\CCN(C2=O)[C@@H](Cc2ccc(C)cc2)C(=O)N(C)CC(=O)N[C@@H](CCc2cc(F)c(C(F)(F)F)c(F)c2)C(=O)N2C[C@H](OCC)C[C@H]2C(=O)NC2(CCC2)C(=O)N(C)[C@@H](C2CCCC2)C(=O)N(C)[C@H](C(=O)N(C)C)CC(=O)N1C [PP2798] | A (a compound having 10 or more and less than 20 is denoted as A) | A (a compound having 10 or more and less than 20 is denoted as A)
5.9 | CCC[C@H]1C(=O)N[C@@H]([C@@H](C)CC)C(=O)N(C2CC2)CC(=O)N(C)[C@H]2C/C=C\CCN(C2=O)[C@@H](Cc2ccc(C)cc2)C(=O)N(C)CC(=O)N[C@@H](CCc2ccc(C(F)(F)F)c(OC)c2)C(=O)N2C[C@H](OCC)C[C@H]2C(=O)NC2(CC(C)(C)C2)C(=O)N(C)[C@@H](CC2CC2)C(=O)N(C)[C@H](C(=O)N(C)C)CC(=O)N1C [PP2803] | A (a compound having 10 or more and less than 20 is denoted as A) | A (a compound having 10 or more and less than 20 is denoted as A)
